The record followed here is article PMC7004140, “In vitro hepatotoxicity of Petasites hybridus extract (Ze 339) depends on the concentration, the cytochrome activity of the cell system, and the species used” (Phytotherapy Research, 2019).

For one data set, the system named is H-4-II-E cells. The data set is described as follows: WST-1 metabolic activity (cytotoxicity) in H-4-II-E cells. Type of data set: cell-based, rat (Rattus norvegicus). The conditions noted are these: Rattus norvegicus, H4IIE, single constituents, 4 hr. On the procedure: HepG2 and H‐4‐II‐E cells were differentiated for 24 hr. HepaRG cells were directly seeded in precoated 96‐well microtiter plates and were incubated in William's medium with general purpose supplements according to manufacturer's manual until adherence. All cells were treated with Ze 339 (up to 100 μg/ml) or petasin, isopetasin, neopetasin, petasol, isopetasol, petasin mixture, fatty acid mixture, and reconstituted extracts (up to 250 μM) for 4 hr.
In the three cell lines, cytotoxicity was defined as a decrease in metabolic activity of ≥20% in the WST‐1 assay. At the end of the experiment, 10 μl WST‐1 reagent was added to each well. Plates were then incubated for 2 hr to allow for the reduction of WST‐1 reagent. Absorbance was measured using a microplate absorbance reader (Infinite M 200, Tecan Trading Ltd., Switzerland) at 450 nm, reference wavelength of 620 nm. Due to some matrix effect, the lowest concentration (0.02 μg/ml for Ze 339 and 3.9 μM for single constituents and mixtures) of each substance tested was defined as 100% metabolic activity. Results were expressed as percentage of the control metabolic activity, and data were presented as mean values ± SEM (n = 3–6).
Concentration‐response analysis was done using the sigmoidal Hill equation: E(t) = E0 − Emax × C(t)^N/(IC50 ^N + C(t)^N), where E is the effect at time t, E0 the effect at baseline (time = 0), IC50 the concentration yielding 50% of the maximal effect (Emax), and N denotes the sigmoidicity coefficient (Origin 2017 Software). For statistical analysis, analysis of variance with Dunnett's multicomparison test was used to correct for multiplicity of testing (IBM SPSS Statistics software, version 25, IBM Corp., USA). The level of significance was ^* p < .05, ^** p < .01 and ^*** p < .001; NS = no significance.
On the technique in general: Tetrazolium dyes change colour on reduction, which living cells bring about.

In the next data set the target is T1, CYP3A4 (human) (Homo sapiens, UniProt P08684).
T1 construct: purchased BD Gentest (Switzerland); host or cells: baculovirus expression system
T1 sequence (P08684 whole entry): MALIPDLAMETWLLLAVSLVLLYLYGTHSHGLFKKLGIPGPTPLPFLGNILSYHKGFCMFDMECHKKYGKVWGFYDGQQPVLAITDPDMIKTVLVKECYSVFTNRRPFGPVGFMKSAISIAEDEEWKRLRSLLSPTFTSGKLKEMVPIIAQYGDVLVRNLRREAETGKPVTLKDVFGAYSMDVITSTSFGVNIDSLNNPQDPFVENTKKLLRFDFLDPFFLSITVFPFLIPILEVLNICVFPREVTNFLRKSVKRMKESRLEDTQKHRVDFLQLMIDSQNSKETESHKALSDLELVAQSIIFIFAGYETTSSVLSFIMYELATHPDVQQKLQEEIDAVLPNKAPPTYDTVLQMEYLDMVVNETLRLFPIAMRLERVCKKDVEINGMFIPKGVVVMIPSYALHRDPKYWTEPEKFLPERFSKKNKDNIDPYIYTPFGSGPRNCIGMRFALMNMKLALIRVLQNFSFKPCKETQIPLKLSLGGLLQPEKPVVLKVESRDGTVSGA
The data set is described as follows: Metabolism by isolated human CYP3A4. Format: in vitro ADME. As to conditions: petasins 20 μM, 60 min. An excerpt: (§1) The metabolism of petasin, isopetasin, and neopetasin was investigated using three different S9 fractions originating from three different species (isolated from rat, dog, and human liver homogenates containing cytochrome P450 isoforms) and isolated cytochromes of two different species (human and rat; rat analogues of the respective human cytochromes were used). For the expression of the different cytochromes, a baculovirus expression system was used according to supplier's manual. The S9 fractions or respectively single P450 cytochromes were used to mimic the liver metabolism by in vitro incubation.
(§2) The assay was carried out in triplicate in 1.5 ml glass vials with a final concentration of 20 μM of petasin, isopetasin, and neopetasin. The incubation was performed in a 37°C warm water bath. S9 fractions were thawed slowly on ice. Four different approaches were pursued by testing: (a) petasin, neopetasin, and isopetasin before (0 min) and after 60 min incubations with S9 fraction; (b) petasin, neopetasin, and isopetasin without S9 fraction after 60 min incubation; (c) vehicle as negative controls; and (d) cofactors of S9 fraction after 60‐min incubation.
(§3) A mixture of NADPH regeneration systems A (20‐fold) and B (100‐fold), phosphate buffer, and H2O was added, preincubated at 37°C, and shaken gently for 5 min. Afterwards, the recommended amount between 10 and 40 pmol/ml of enzyme or enzyme mixture was added according to manufacturer's instruction and incubated for further 60 min at 37°C and gently shaken. Afterwards, the reactions were stopped by addition of acetonitrile (400 μl). For the control sample, acetonitrile was added at 0 min incubation. The samples were centrifuged for 3 min at 10,000 × g. The supernatant was transferred to high‐performance liquid chromatography vials and analyzed by ultra‐performance liquid chromatography mass spectrometry (UPLC/MS). The UPLC analysis was performed with an UPLC Acquity H Class from Waters (Waters Corporation, Switzerland) including a quaternary high‐pressure gradient pump, an automatic sample injector, and a column thermostat. […]

Another data set deals with T2, CYP2B6 (human) (Homo sapiens, UniProt P20813).
T2 construct: purchased BD Gentest (Switzerland); host or cells: baculovirus expression system
T2 sequence (P20813 1-491): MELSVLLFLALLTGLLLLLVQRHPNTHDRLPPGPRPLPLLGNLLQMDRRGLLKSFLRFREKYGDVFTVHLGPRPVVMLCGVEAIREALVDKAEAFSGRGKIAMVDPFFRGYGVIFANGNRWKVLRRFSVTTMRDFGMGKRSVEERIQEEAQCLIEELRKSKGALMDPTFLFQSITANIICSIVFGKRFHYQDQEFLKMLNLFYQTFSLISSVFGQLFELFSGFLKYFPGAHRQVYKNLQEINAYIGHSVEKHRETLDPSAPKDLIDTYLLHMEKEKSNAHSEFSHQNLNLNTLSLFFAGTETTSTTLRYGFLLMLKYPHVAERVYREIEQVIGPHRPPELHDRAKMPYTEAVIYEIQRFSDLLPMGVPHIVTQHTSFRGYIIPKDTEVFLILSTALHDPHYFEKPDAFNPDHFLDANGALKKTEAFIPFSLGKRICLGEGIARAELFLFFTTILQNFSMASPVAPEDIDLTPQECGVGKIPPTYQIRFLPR
Kind of data set: Metabolism by isolated human CYP2B6. Format: in vitro ADME. The conditions noted are these: petasins 20 μM, 60 min.
Description: as §1, §2, §3

In data set [1] the test system is S9 fractions from rat, dog and human. The data set is described as follows: Metabolism by liver S9 fractions from different species. Type of data set: in vitro ADME, rat (Sprague Dawley), dog (beagle). As to conditions: 20 μM, 60 min incubation.
Description: as §1, §2, §3

The term EC50 denotes the concentration at which the effect is half-maximal. Consider `C/C=C(/C)C(=O)O[C@@H]1CCC2=CC(=O)C(=C(C)C)C[C@]2(C)[C@H]1C` [isopetasin], for which, in the data set on H-4-II-E cells, the response was half-maximal at 110 µM (EC50). Besides, at CYP3A4 (human), the “extent of metabolism by CYP3A4 (human)” value was 87%. Further, at CYP2B6 (human), the “extent of metabolism by CYP2B6 (human)” value turned out to be 13%. Moreover, the “rank order of extent of metabolism by S9 fractions of different species” value in data set [1] is “rat>dog>human”.
The corresponding values for `C=C(C)[C@H]1C[C@@]2(C)C(=CC1=O)CC[C@@H](OC(=O)/C(C)=C\C)[C@@H]2C` [neopetasin] are 15.8 µM, 86%, 20% and “rat>dog>human”.
In the same order, the values of `C=C(C)[C@@H]1C[C@@]2(C)C(=CC1=O)CC[C@@H](OC(=O)/C(C)=C\C)[C@@H]2C` [petasin] are 132 µM, 34%, 50% and “rat>dog>human”.
